Assay results reported in ChEMBL document CHEMBL2429832, “N-substituted 8-aminopentacyclo[5.4.0.0(2,6).0(3,10).0(5,9)]undecanes as σ receptor ligands with potential neuroprotective effects” (Bioorg Med Chem, 2013).

Legend:
[1] = molecular target: Sodium-dependent serotonin transporter (Homo sapiens, UniProt P31645); assay: Displacement of [3H]-citalopram from human SERT expressed in HEK cell membranes at 10 uM relative to control; details: HEK293
[2] = molecular target: T1, Muscarinic acetylcholine receptor M5 (Homo sapiens) (UniProt P08912); assay: Inhibition of muscarinic M5 receptor (unknown origin) at 10 uM by PDSP assay relative to control
T1 sequence (whole entry): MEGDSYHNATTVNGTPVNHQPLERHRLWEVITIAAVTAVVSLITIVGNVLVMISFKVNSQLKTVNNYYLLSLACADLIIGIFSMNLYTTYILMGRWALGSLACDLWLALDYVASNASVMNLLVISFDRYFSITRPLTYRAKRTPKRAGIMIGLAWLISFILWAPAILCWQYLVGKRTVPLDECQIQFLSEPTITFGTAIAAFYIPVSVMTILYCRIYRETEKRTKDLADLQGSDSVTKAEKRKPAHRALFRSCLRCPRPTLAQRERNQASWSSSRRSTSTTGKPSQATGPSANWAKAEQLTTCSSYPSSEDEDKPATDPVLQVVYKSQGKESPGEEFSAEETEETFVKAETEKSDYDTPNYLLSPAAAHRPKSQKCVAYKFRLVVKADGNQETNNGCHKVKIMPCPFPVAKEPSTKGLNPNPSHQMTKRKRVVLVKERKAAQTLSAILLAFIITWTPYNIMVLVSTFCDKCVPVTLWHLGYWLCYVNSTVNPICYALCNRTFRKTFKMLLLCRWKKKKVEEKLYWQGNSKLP

[3] = molecular target: T2, Muscarinic acetylcholine receptor M4 (Homo sapiens, UniProt P08173); assay: Inhibition of muscarinic M4 receptor (unknown origin) by PDSP assay
T2 sequence (P08173 whole entry): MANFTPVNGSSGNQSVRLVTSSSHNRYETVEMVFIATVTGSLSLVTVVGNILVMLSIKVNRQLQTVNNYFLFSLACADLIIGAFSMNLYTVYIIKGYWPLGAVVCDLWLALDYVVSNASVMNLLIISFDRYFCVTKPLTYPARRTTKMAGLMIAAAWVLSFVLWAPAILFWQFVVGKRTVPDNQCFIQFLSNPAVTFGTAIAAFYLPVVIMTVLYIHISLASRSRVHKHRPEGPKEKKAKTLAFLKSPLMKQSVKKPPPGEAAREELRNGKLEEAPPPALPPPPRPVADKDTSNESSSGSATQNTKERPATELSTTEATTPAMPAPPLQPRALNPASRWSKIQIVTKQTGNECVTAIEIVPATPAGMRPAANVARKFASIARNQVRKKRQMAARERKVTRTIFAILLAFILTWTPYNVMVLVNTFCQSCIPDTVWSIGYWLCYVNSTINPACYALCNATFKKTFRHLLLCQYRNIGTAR

D(3) dopamine receptor = D(3) dopamine receptor (Homo sapiens, UniProt P35462); assay: Inhibition of dopamine D3 receptor (unknown origin) at 10 uM by PDSP assay relative to control
Chain of D(3) dopamine receptor (P35462 whole entry): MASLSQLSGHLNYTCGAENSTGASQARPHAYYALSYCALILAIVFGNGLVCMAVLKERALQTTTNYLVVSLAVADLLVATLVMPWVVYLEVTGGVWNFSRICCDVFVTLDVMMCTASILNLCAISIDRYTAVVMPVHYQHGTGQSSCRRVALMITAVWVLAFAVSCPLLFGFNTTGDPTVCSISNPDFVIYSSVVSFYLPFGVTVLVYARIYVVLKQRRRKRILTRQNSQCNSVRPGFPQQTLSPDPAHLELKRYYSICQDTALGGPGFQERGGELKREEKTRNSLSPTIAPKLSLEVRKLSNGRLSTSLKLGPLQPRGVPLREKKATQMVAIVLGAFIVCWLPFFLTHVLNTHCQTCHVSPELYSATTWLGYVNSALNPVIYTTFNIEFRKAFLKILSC

[4] = molecular target: T3, Alpha-2A adrenergic receptor (Homo sapiens) (UniProt P08913); assay: Inhibition of adrenergic alpha2A receptor (unknown origin) at 10 uM by PDSP assay relative to control
T3 sequence (whole entry): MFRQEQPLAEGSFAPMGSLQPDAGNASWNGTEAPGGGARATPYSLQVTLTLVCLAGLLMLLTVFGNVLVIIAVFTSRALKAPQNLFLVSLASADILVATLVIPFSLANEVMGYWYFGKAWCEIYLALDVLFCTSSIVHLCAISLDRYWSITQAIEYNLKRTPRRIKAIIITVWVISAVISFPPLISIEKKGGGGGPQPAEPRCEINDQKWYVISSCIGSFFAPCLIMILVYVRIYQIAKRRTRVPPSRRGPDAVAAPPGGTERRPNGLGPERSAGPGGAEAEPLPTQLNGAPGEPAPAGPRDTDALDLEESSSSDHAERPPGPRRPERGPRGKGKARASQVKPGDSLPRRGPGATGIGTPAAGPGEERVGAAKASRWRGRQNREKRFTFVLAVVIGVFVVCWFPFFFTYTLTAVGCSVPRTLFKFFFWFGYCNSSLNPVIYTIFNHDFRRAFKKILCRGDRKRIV

[5] = molecular target: T4, Alpha-1B adrenergic receptor (Homo sapiens) (UniProt P35368); assay: Inhibition of adrenergic alpha1B receptor (unknown origin) at 10 uM by PDSP assay relative to control
T4 sequence (whole entry): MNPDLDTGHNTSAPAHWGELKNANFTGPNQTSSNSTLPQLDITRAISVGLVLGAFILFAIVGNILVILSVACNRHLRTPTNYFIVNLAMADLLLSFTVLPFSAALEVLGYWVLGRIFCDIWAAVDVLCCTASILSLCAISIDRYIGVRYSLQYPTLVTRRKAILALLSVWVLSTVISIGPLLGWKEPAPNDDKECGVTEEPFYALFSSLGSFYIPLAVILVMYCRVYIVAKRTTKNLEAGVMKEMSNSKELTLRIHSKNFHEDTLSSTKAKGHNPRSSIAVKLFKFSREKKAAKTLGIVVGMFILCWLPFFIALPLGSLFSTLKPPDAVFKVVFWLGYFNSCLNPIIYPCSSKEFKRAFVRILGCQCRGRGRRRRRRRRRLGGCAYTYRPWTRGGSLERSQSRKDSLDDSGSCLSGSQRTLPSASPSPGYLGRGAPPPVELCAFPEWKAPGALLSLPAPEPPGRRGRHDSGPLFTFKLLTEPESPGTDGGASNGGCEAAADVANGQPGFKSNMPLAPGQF

[6] = molecular target: Kappa-type opioid receptor (Homo sapiens, UniProt P41145); assay: Inhibition of kappa opioid receptor (unknown origin) at 10 uM by PDSP assay relative to control
Chain of Kappa-type opioid receptor (P41145 whole entry): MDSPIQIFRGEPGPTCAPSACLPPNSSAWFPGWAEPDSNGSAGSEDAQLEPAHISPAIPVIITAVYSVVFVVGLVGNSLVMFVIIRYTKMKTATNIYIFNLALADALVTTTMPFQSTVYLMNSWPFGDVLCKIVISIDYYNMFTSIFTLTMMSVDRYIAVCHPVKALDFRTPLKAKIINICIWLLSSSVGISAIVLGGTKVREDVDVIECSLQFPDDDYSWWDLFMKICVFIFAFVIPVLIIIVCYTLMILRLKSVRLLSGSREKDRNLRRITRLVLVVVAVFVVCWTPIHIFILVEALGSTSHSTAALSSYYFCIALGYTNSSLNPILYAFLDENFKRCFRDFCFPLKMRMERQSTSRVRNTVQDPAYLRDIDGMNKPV

D(2) dopamine receptor = D(2) dopamine receptor (Homo sapiens, UniProt P14416); assay: Inhibition of dopamine D2 receptor (unknown origin) at 10 uM by PDSP assay relative to control
Chain of D(2) dopamine receptor (P14416 whole entry): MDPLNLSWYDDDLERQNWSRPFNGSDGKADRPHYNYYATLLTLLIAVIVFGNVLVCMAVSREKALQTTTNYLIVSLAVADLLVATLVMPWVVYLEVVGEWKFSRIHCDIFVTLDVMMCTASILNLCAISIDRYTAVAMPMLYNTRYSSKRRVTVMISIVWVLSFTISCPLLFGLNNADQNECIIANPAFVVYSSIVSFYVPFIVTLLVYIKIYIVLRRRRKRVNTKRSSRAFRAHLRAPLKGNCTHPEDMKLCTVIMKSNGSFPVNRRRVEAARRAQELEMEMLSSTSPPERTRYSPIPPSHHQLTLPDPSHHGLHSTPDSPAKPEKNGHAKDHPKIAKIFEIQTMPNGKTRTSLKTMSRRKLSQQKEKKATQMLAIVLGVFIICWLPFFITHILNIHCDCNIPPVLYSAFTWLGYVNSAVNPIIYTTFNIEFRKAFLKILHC

Histamine H1 receptor = Histamine H1 receptor (Homo sapiens, UniProt P35367); assay: Inhibition of histamine H1 receptor (unknown origin) at 10 uM by PDSP assay relative to control
Chain of Histamine H1 receptor (P35367 whole entry): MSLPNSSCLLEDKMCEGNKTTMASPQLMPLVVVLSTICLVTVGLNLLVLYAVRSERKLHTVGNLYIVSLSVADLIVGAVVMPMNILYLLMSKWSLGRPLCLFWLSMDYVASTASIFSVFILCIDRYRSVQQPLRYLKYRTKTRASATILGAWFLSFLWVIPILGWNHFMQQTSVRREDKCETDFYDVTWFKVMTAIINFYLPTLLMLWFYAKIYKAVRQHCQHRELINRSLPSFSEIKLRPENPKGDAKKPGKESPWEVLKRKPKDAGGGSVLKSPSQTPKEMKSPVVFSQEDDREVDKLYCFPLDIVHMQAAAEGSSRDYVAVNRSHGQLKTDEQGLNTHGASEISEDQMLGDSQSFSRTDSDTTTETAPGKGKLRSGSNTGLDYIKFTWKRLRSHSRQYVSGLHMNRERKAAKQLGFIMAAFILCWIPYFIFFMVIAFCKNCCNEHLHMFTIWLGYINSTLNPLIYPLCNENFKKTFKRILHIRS

[7] = molecular target: T5, Muscarinic acetylcholine receptor M2 (Homo sapiens, UniProt P08172); assay: Inhibition of muscarinic M2 receptor (unknown origin) by PDSP assay
T5 sequence (P08172 whole entry): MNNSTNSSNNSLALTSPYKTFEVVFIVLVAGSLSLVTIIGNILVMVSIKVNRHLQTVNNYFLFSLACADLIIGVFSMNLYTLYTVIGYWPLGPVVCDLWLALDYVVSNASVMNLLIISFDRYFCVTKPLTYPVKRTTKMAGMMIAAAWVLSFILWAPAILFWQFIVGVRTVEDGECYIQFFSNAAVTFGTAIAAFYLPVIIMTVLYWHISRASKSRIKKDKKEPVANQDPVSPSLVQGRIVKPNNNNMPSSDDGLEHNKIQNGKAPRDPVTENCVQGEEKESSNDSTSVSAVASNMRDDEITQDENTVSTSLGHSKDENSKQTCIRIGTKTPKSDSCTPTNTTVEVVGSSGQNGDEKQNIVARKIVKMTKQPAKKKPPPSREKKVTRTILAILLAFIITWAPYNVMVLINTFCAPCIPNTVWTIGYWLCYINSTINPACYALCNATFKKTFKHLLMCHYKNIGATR

Chain of Sodium-dependent serotonin transporter (P31645 whole entry, looked up): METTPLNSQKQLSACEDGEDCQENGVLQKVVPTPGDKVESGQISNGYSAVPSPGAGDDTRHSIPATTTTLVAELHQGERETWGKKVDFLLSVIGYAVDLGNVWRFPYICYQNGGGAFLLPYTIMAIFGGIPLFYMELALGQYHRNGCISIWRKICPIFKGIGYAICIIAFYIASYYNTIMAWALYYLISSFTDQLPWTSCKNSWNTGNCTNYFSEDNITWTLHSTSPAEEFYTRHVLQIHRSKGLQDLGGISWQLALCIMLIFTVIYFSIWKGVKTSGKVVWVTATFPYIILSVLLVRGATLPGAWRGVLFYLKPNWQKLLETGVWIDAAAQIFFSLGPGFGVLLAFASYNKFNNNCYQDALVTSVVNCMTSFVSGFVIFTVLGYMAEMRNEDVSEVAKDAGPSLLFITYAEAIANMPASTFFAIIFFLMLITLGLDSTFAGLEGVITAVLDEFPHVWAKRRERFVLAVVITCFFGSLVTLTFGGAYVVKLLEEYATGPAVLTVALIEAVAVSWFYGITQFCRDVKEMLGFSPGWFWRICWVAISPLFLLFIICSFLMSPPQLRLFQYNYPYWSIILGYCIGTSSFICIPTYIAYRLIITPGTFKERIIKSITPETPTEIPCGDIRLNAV

Row | SMILES | inhibition [1] [%] | inhibition [2] [%] | Ki [3] [µM] | inhibition (D(3) dopamine receptor) [%] | inhibition [4] [%] | inhibition [5] [%] | inhibition [6] [%] | inhibition (D(2) dopamine receptor) [%] | inhibition (Histamine H1 receptor) [%] | Ki [7] [µM]
1 | CN(Cc1cccc(F)c1)[C@H]1C2C3CC4C2C(=O)C2C4C3C21 (some centres undefined) | < 50 | < 50 | 4.04 | < 50 | < 50 | < 50 | < 50 | < 50 | < 50 | 1.73
2 | CN(Cc1cccnc1)[C@H]1C2C3CC4C2C(=O)C2C4C3C21 (some centres undefined) | < 50 | < 50 | 6.99 | < 50 | < 50 | < 50 | < 50 | < 50 | < 50 | 8.85
3 | CN(CCc1ccccn1)[C@H]1C2C3CC4C5C3CC2C5C41 (some centres undefined) | < 50 | < 50 | 3.81 | < 50 | < 50 | < 50 |  | < 50 | < 50 | 3.55
